Measured values as given in the NIST ThermoML archive (doi:10.1016/j.jct.2015.12.025).

How the values were obtained:
[1] = xn = mol fraction of the nth substance listed; settings: 102 kPa, Liquid, Vibrating tube method
[2] = refractive index (Na D-line) (dimensionless); xn = mol fraction of the nth substance listed; settings: 102 kPa, Liquid, Standard Abbe refractometry

C[Si]1(CCC(F)(F)F)O[Si](C)(CCC(F)(F)F)O[Si](C)(CCC(F)(F)F)O1 (stereo not given) + O=[N+]([O-])c1ccccc1
Settings | mass density, 308.15 K [kg/m3] | mass density, 313.15 K [kg/m3] | mass density, 318.15 K [kg/m3] | mass density, 323.15 K [kg/m3] | refractive index, 308.15 K | refractive index, 313.15 K | refractive index, 318.15 K | refractive index, 323.15 K
[1], x1 = 0.05 | 1199.58 | 1194.53 | 1189.25 | 1184.09 | – | – | – | –
[1], x1 = 0.0999 | 1207.93 | 1202.66 | 1197.26 | 1191.9 | – | – | – | –
[1], x1 = 0.1499 | 1214.25 | 1208.83 | 1203.23 | 1197.73 | – | – | – | –
[1], x1 = 0.1919 | 1218.36 | 1212.79 | 1207.17 | 1201.58 | – | – | – | –
[1], x1 = 0.2499 | 1222.85 | 1217.11 | 1211.37 | 1205.62 | – | – | – | –
[1], x1 = 0.2999 | 1225.81 | 1220.01 | 1214.12 | 1208.26 | – | – | – | –
[1], x1 = 0.3501 | 1228.12 | 1222.19 | 1216.28 | 1210.32 | – | – | – | –
[1], x1 = 0.3999 | 1229.99 | 1224 | 1218.01 | 1211.97 | – | – | – | –
[1], x1 = 0.4499 | 1231.5 | 1225.36 | 1219.29 | 1213.19 | – | – | – | –
[1], x1 = 0.5008 | 1232.67 | 1226.56 | 1220.4 | 1214.21 | – | – | – | –
[1], x1 = 0.55 | 1233.65 | 1227.39 | 1221.21 | 1215 | – | – | – | –
[1], x1 = 0.6001 | 1234.37 | 1228.07 | 1221.84 | 1215.54 | – | – | – | –
[1], x1 = 0.6501 | 1234.9 | 1228.58 | 1222.33 | 1216 | – | – | – | –
[1], x1 = 0.6997 | 1235.32 | 1229.04 | 1222.69 | 1216.31 | – | – | – | –
[1], x1 = 0.75 | 1235.76 | 1229.34 | 1222.98 | 1216.56 | – | – | – | –
[1], x1 = 0.8002 | 1236.01 | 1229.55 | 1223.17 | 1216.72 | – | – | – | –
[1], x1 = 0.8498 | 1236.19 | 1229.72 | 1223.28 | 1216.78 | – | – | – | –
[1], x1 = 0.9002 | 1236.26 | 1229.82 | 1223.34 | 1216.83 | – | – | – | –
[1], x1 = 0.9492 | 1236.47 | 1229.88 | 1223.44 | 1216.88 | – | – | – | –
[1], x1 = 1 | 1236.63 | 1230.05 | 1223.55 | 1216.99 | – | – | – | –
[2], x1 = 0.05 | – | – | – | – | 1.51601 | 1.51362 | 1.51123 | 1.50882
[2], x1 = 0.0999 | – | – | – | – | 1.49288 | 1.49054 | 1.48816 | 1.48586
[2], x1 = 0.1499 | – | – | – | – | 1.47398 | 1.47168 | 1.46935 | 1.46705
[2], x1 = 0.1919 | – | – | – | – | 1.46058 | 1.4583 | 1.45605 | 1.45377
[2], x1 = 0.2499 | – | – | – | – | 1.44494 | 1.4427 | 1.44048 | 1.43827
[2], x1 = 0.2999 | – | – | – | – | 1.43355 | 1.43137 | 1.42916 | 1.42695
[2], x1 = 0.3501 | – | – | – | – | 1.42369 | 1.42151 | 1.41931 | 1.41713
[2], x1 = 0.3999 | – | – | – | – | 1.41513 | 1.41296 | 1.41082 | 1.40865
[2], x1 = 0.4499 | – | – | – | – | 1.40755 | 1.4054 | 1.40325 | 1.40109
[2], x1 = 0.5008 | – | – | – | – | 1.4007 | 1.39858 | 1.39644 | 1.39433
[2], x1 = 0.55 | – | – | – | – | 1.39478 | 1.3927 | 1.39053 | 1.38845
[2], x1 = 0.6001 | – | – | – | – | 1.38938 | 1.38728 | 1.38519 | 1.3831
[2], x1 = 0.6501 | – | – | – | – | 1.38448 | 1.38239 | 1.38032 | 1.37824
[2], x1 = 0.6997 | – | – | – | – | 1.38006 | 1.378 | 1.37594 | 1.37384
[2], x1 = 0.75 | – | – | – | – | 1.376 | 1.37391 | 1.37188 | 1.36984
[2], x1 = 0.8002 | – | – | – | – | 1.37227 | 1.37021 | 1.36817 | 1.36612
[2], x1 = 0.8498 | – | – | – | – | 1.36887 | 1.36681 | 1.36478 | 1.36274
[2], x1 = 0.9002 | – | – | – | – | 1.36567 | 1.36365 | 1.36163 | 1.35959
[2], x1 = 0.9492 | – | – | – | – | 1.36284 | 1.36084 | 1.35878 | 1.35679
[2], x1 = 1 | – | – | – | – | 1.36011 | 1.35808 | 1.35609 | 1.35407

CC(C)(C)c1ccccc1 [(1,1-dimethylethyl)benzene] + C[Si]1(CCC(F)(F)F)O[Si](C)(CCC(F)(F)F)O[Si](C)(CCC(F)(F)F)O1
Settings | mass density, 308.15 K [kg/m3] | mass density, 313.15 K [kg/m3] | mass density, 318.15 K [kg/m3] | mass density, 323.15 K [kg/m3] | refractive index, 308.15 K | refractive index, 313.15 K | refractive index, 318.15 K | refractive index, 323.15 K
[1], x2 = 0 | 854.12 | 849.98 | 845.87 | 841.72 | – | – | – | –
[1], x2 = 0.0476 | 894.32 | 889.93 | 885.61 | 881.21 | – | – | – | –
[1], x2 = 0.1 | 933.32 | 928.72 | 924.21 | 919.56 | – | – | – | –
[1], x2 = 0.15 | 966.19 | 961.47 | 956.76 | 951.94 | – | – | – | –
[1], x2 = 0.2 | 995.76 | 990.72 | 985.86 | 980.83 | – | – | – | –
[1], x2 = 0.25 | 1022.23 | 1017.01 | 1012 | 1006.81 | – | – | – | –
[1], x2 = 0.2999 | 1046.09 | 1040.82 | 1035.68 | 1030.38 | – | – | – | –
[1], x2 = 0.3499 | 1067.85 | 1062.39 | 1057.13 | 1051.7 | – | – | – | –
[1], x2 = 0.3999 | 1087.64 | 1082.11 | 1076.69 | 1071.16 | – | – | – | –
[1], x2 = 0.45 | 1105.84 | 1100.2 | 1094.66 | 1089.02 | – | – | – | –
[1], x2 = 0.5 | 1122.55 | 1116.79 | 1111.16 | 1105.4 | – | – | – | –
[1], x2 = 0.5498 | 1137.88 | 1132.05 | 1126.36 | 1120.47 | – | – | – | –
[1], x2 = 0.6 | 1152.22 | 1146.28 | 1140.41 | 1134.47 | – | – | – | –
[1], x2 = 0.6499 | 1165.5 | 1159.37 | 1153.46 | 1147.45 | – | – | – | –
[1], x2 = 0.7001 | 1177.76 | 1171.65 | 1165.58 | 1159.5 | – | – | – | –
[1], x2 = 0.75 | 1189.19 | 1183.03 | 1176.83 | 1170.74 | – | – | – | –
[1], x2 = 0.7995 | 1199.87 | 1193.61 | 1187.3 | 1181.13 | – | – | – | –
[1], x2 = 0.8499 | 1209.99 | 1203.62 | 1197.27 | 1190.93 | – | – | – | –
[1], x2 = 0.8954 | 1218.66 | 1212.17 | 1205.76 | 1199.34 | – | – | – | –
[1], x2 = 0.9485 | 1228.1 | 1221.55 | 1215.06 | 1208.56 | – | – | – | –
[2], x2 = 0 | – | – | – | – | 1.48509 | 1.48256 | 1.48007 | 1.47754
[2], x2 = 0.0476 | – | – | – | – | 1.47051 | 1.46805 | 1.4656 | 1.46312
[2], x2 = 0.1 | – | – | – | – | 1.45684 | 1.45441 | 1.452 | 1.4496
[2], x2 = 0.15 | – | – | – | – | 1.44555 | 1.44313 | 1.44079 | 1.4384
[2], x2 = 0.2 | – | – | – | – | 1.4356 | 1.43327 | 1.43091 | 1.42856
[2], x2 = 0.25 | – | – | – | – | 1.42681 | 1.4245 | 1.42218 | 1.41985
[2], x2 = 0.2999 | – | – | – | – | 1.41901 | 1.41671 | 1.41444 | 1.41212
[2], x2 = 0.3499 | – | – | – | – | 1.41199 | 1.40972 | 1.40747 | 1.40521
[2], x2 = 0.3999 | – | – | – | – | 1.40568 | 1.40344 | 1.4012 | 1.39899
[2], x2 = 0.45 | – | – | – | – | 1.39992 | 1.3977 | 1.39552 | 1.3933
[2], x2 = 0.5 | – | – | – | – | 1.39466 | 1.39251 | 1.39033 | 1.38813
[2], x2 = 0.5498 | – | – | – | – | 1.38992 | 1.38774 | 1.38566 | 1.3834
[2], x2 = 0.6 | – | – | – | – | 1.38555 | 1.38337 | 1.38127 | 1.37906
[2], x2 = 0.6499 | – | – | – | – | 1.38151 | 1.37934 | 1.37726 | 1.37512
[2], x2 = 0.7001 | – | – | – | – | 1.37773 | 1.37562 | 1.37352 | 1.37141
[2], x2 = 0.75 | – | – | – | – | 1.37427 | 1.3722 | 1.3701 | 1.36801
[2], x2 = 0.7995 | – | – | – | – | 1.37106 | 1.36902 | 1.36693 | 1.36485
[2], x2 = 0.8499 | – | – | – | – | 1.36804 | 1.36599 | 1.36394 | 1.36193
[2], x2 = 0.8954 | – | – | – | – | 1.36548 | 1.36342 | 1.36142 | 1.35939
[2], x2 = 0.9485 | – | – | – | – | 1.36268 | 1.36065 | 1.35863 | 1.35667
